# According to paper PMC11117721, “A Fast-Binding, Functionally Reversible, COX-2 Radiotracer for CNS PET Imaging” (ACS Central Science, 2024):
# Target: T1, COX-2 (Homo sapiens, UniProt P35354)
# T1 sequence (P35354 18-604): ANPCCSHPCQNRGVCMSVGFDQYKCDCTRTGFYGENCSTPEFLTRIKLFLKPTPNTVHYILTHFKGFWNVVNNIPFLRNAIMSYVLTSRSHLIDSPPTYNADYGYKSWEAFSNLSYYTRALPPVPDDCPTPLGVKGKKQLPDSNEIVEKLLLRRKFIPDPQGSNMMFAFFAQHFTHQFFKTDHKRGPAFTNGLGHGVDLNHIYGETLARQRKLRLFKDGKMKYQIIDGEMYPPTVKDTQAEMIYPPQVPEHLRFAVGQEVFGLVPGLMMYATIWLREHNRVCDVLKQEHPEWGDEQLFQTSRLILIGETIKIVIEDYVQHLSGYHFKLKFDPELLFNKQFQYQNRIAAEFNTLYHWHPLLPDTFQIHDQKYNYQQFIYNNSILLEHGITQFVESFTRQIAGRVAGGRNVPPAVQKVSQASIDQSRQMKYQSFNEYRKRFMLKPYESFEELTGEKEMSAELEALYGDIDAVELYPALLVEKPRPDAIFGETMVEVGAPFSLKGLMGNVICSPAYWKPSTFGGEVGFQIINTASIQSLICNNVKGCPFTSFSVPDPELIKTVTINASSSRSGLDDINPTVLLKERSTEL
# Assay: PET neuroimaging of rats with localized human COX-2 overexpression (intrastriatal AAV2-GFP-hCOX2)
# Assay type: in vivo
# Parameters: FLAG; P2A linker remnant (GFP cassette co-expressed, separated by P2A); host or cells: rat striatal (caudate putamen) neurons transduced in vivo with AAV2, human synapsin promoter
# Conditions: COX-2 overexpression rat model
# Procedure: Localized overexpression of human COX-2 was induced in rats with intrastriatal injections of AAV2-GFP-hCOX2 to the right caudate and AAV2-GFP (control virus) to the left caudate (Figure 2A).[53] Animals also received a systemic injection of mannitol to enhance vector spread and transgene expression.[54] To directly compare the kinetic profiles of the three COX-2 tracers, intrasubject imaging was performed in several rats. Each animal was scanned under baseline and competition (+celecoxib) conditions, testing each tracer within each animal (initial data in Figure 2). […] The full experimental design was then replicated (Figure S8 in the Supporting Information). An additional experiment lacking the control virus to the left caudate was performed to facilitate assessment of tracer uptake that could be mediated by the instrastiatal injection through blood brain barrier disruption (Figure S9 in the Supporting Information).
# In accordance with Massachusetts General Hospital Institutional Animal Care and Use Committee (IACUC) protocols, Sprague Dawley rats (300-500g, Charles River Laboratories), wildtype mice (Strain […]
# Respiratory rates and body temperature were monitored through all imaging and surgical procedures, generally using a respiratory pad and rectal probe. […]
# Figure 9). […] Using a sterile ruler coordinates ML 2.5 mm; AP 0.5 mm was measured and marked respective t o bregma. […]
smiles,measurement,value
[11CH3]S(=O)(=O)c1ccc(-c2cccc(NCc3ccoc3)n2)cc1 [[^11C]BRD1158],time of clear separation of right caudate PET signal from controls (left caudate and cerebellum),10 min
